# Assay results as given in patent publication US8563717B2, “Adenine derivatives” (GlaxoSmithKline LLC, priority 2008, dated 2013).
# Where a name gives a salt, the structure may show the parent alone.
# Test system: Interferon-α
# Test: Induction of Interferon-α using cryopreserved human PBMCs
# Assay type: cell-based
# Settings: PBMC, 24 h incubation, normalised to 1 uM resiquimod, read-out: mean pEC50 for induction of IFN-α (converted)
# Procedure: Assay for the Induction of Interferon-α Using Cryopreserved Human Peripheral Blood Mononuclear Cells (PBMCs)
# Compounds were dissolved in DMSO. Serial 2-fold dilutions with DMSO were prepared and 0.25 μl dispensed into 384-well clear Greiner polypropylene plates.
# Blood samples of up to 200 ml were obtained from healthy human donors. Whole blood in 25 ml volumes was overlaid onto 15 ml Ficoll gradients in Leucosep tubes, and centrifuged at 1000 g for 20 min. Cells in the band at the plasma/histopaque interface were carefully removed and washed twice with PBS (centrifuged at 400 g for 5 min to harvest). The final pellet was resuspended in freezing medium (90% Heat-inactivated serum, 10% DMSO) to a cell concentration of 4×10^7 cells/ml. The resuspended cells were then cryopreserved (frozen) using a rate controlled freezer, and stored at −140° C. for up to 4 months.
# Immediately prior to assay, vials of cryopreserved (frozen) PBMCs were thawed rapidly in a water bath at 37° C. A 1:10 dilution of the cells in trypan blue was prepared and counted. The PBMCs were then diluted in growth media [RPMI 1640 containing 10% fetal calf serum (invitrogen), Penicillin+[…] (Gibco cat. #25030-024, 1:50), L-Glutamine 2 mM, and 1000 units/ml recombinant human IFN-gamma (Preprotech catalogue #300-02)] to a density of 1×10^6 cells/ml, and 50 ul/well dispensed to 384-well clear Greiner polypropylene plates containing 0.25 μl DMSO or test compound in 0.25 μl DMSO. […] Plates were incubated for 24 h at 37° C. in 5% CO2.
# A multi-isoform immunoassay was used to quantify IFN-α in PBMC supernatants. Rabbit polyclonal antibody against human IFN-α (catalogue number 31101, Stratech Scientific) was diluted 1:10000 in assay buffer (RPMI 1640 containing 10% fetal calf serum, Invitrogen) and 20 μl was added to each well of an MSD (Meso-Scale Discovery) single small-spot 384-well GAR (goat anti-rabbit antibody coated) plate. The plate was incubated for 1 hour at room temperature with vigorous shaking. Following three washes with PBS, 20 μl of cell supernatant were added to each well of the plate. The plate was then incubated for 1 hour at room temperature with vigorous shaking. A pair of monoclonal antibodies to IFN-α (catalogue numbers 21100 and 21112, Stratech Scientific) were labelled with sulfo-TAG (MSD), diluted 1:1000 in assay buffer and 20 μl added to each well of the plate. The plate was further incubated for 1 hour at room temperature with vigorous shaking. Following three washes with PBS, 30 μl of x2 T buffer (MSD) was added to each well and the plate was read on an MSD Sector 6000 plate reader.
# Data were normalised to internal plate controls of 1 uM resiquimod (n=16) and DMSO (n=16). pEC50 values were derived by 4-parameter curve fit with IRLS in ActivityBase, from 11-point, two-fold serial dilution of test compounds.
row,Structure (SMILES),EC50
1,"CCCCNc1nc(N)c2[nH]c(=O)n(CC3CCCN(CC)C3)c2n1 (stereo not shown) [Example 2, 6-Amino-2-(butylamino)-9-[(1-ethyl-3-piperidinyl)methyl]-7,9-dihydro-8H-purin-8-one]",< 1580 nM
2,"CCCCOc1nc(N)c2[nH]c(=O)n(CC3CCNCC3)c2n1 [Example 3, hydrochloride]",< 1580 nM
3,"CCCCOc1nc(N)c2[nH]c(=O)n(CC3CCCNC3)c2n1 (stereo not shown) [Example 4, hydrochloride]",< 1580 nM
4,"CCCCOc1nc(N)c2[nH]c(=O)n(CCC3CCNCC3)c2n1 [Example 6, hydrochloride]",< 1580 nM
5,"CCCCOc1nc(N)c2[nH]c(=O)n(CCC3CCCCN3)c2n1 (stereo not shown) [Example 11, 6-Amino-2-(butyloxy)-9-[2-(2-piperidinyl)ethyl]-7,9-dihydro-8H-burin-8-one]",< 1580 nM
6,"CCCCOc1nc(N)c2[nH]c(=O)n(CCC3CCCCN3CC)c2n1 (stereo not shown) [Example 12, 6-Amino-2-(butyloxy)-9-[2-(1-ethyl-2-piperidinyl)ethyl]-7,9-dihydro-8H-purin-8-one]",< 1580 nM
7,"CCCCOc1nc(N)c2[nH]c(=O)n(CCCC3CCCCN3)c2n1 (stereo not shown) [Example 13, 6-Amino-2-(butyloxy)-9-[3-(2-piperidinyl)propyl]-7,9-dihydro-8H-purin-8-one]",< 1580 nM
8,"CCCCOc1nc(N)c2[nH]c(=O)n(CCCC3CCCCN3CC)c2n1 (stereo not shown) [Example 14, 6-Amino-2-(butyloxy)-9-[3-(1-ethyl-2-piperidinyl)propyl]-7,9-dihydro-8H-purin-8-one]",< 1580 nM
9,"CCCCOc1nc(N)c2[nH]c(=O)n(CCCC3CCCCN3CCC)c2n1 (stereo not shown) [Example 15, 6-Amino-2-(butyloxy)-9-[3-(1-propyl-2-piperidinyl)propyl]-7,9-dihydro-8H-purin-8-one]",< 1580 nM
10,"CCCCOc1nc(N)c2[nH]c(=O)n(CCCC3CCCCN3C(C)C)c2n1 (stereo not shown) [Example 16, 6-Amino-2-(butyloxy)-9-{3-[1-(1-methylethyl)-2-piperidinyl]propyl}-7,9-dihydro-8H-purin-8-one]",< 1580 nM
11,"CCCCOc1nc(N)c2[nH]c(=O)n(CCCC3CCCCN3CCCC)c2n1 (stereo not shown) [Example 17, 6-Amino-2-(butyloxy)-9-[3-(1-butyl-2-piperidinyl)propyl]-7,9-dihydro-8H-purin-8-one]",< 1580 nM
12,"CCCCOc1nc(N)c2[nH]c(=O)n(CCCC3CCCCN3CCC(C)C)c2n1 (stereo not shown) [Example 19, 6-Amino-2-(butyloxy)-9-{3-[1-(3-methylbutyl)-2-piperidinyl]propyl}-7,9-dihydro-8H-purin-8-one]",< 1580 nM
13,"CCCCOc1nc(N)c2[nH]c(=O)n(CCCC3CCCCN3C3CCCC3)c2n1 (stereo not shown) [Example 20, 6-Amino-2-(butyloxy)-9-[3-(1-cyclopentyl-2-piperidinyl)propyl]-7,9-dihydro-8H-purin-8-one]",< 1580 nM
14,"CCCCOc1nc(N)c2[nH]c(=O)n(CCCC3CCCCN3CC3CCCC3)c2n1 (stereo not shown) [Example 21, 6-Amino-2-(butyloxy)-9-{3-[1-(cyclopentylmethyl)-2-piperidinyl]propyl}-7,9-dihydro-8H-purin-8-one]",< 1580 nM
15,"CCCCOc1nc(N)c2[nH]c(=O)n(CCCC3CCCCN3CCC3CCCCC3)c2n1 (stereo not shown) [Example 22, 6-Amino-2-(butyloxy)-9-{3-[1-(2-cyclohexylethyl)-2-piperidinyl]propyl}-7,9-dihydro-8H-purin-8-one]",< 1580 nM
16,"CCCCOc1nc(N)c2[nH]c(=O)n(CC3CCCN(CCCC)C3)c2n1 (stereo not shown) [Example 25, 6-Amino-2-(butyloxy)-9-[(1-butyl-3-piperidinyl)methyl]-7,9-dihydro-8H-purin-8-one]",< 1580 nM
17,"CCCCOc1nc(N)c2[nH]c(=O)n(CC3CCCN(CC(C)C)C3)c2n1 (stereo not shown) [Example 26, 6-Amino-2-(butyloxy)-9-{[1-(2-methylpropyl)-3-piperidinyl]methyl}-7,9-dihydro-8H-purin-8-one]",< 1580 nM

row,Structure (SMILES),EC50
1,"CCCCOc1nc(N)c2[nH]c(=O)n(CC3CCCN(CCC(C)C)C3)c2n1 (stereo not shown) [Example 27, 6-Amino-2-(butyloxy)-9-{[1-(3-methylbutyl)-3-piperidinyl]methyl}-7,9-dihydro-8H-purin-8-one]",< 1580 nM
2,"CCCCOc1nc(N)c2[nH]c(=O)n(CC3CCCN(C4CCCC4)C3)c2n1 (stereo not shown) [Example 28, 6-Amino-2-(butyloxy)-9-[(1-cyclopentyl-3-piperidinyl)methyl]-7,9-dihydro-8H-purin-8-one hydrochloride]",< 1580 nM
3,"CCCCOc1nc(N)c2[nH]c(=O)n(CCC3CCCN(CCC)C3)c2n1 (stereo not shown) [Example 31, 6-Amino-2-(butyloxy)-9-[2-(1-propyl-3-piperidinyl)ethyl]-7,9-dihydro-8H-purin-8-one]",< 1580 nM
4,"CCCCOc1nc(N)c2[nH]c(=O)n(CCC3CCCN(CCCC)C3)c2n1 (stereo not shown) [Example 33, 6-Amino-2-(butyloxy)-9-[2-(1-butyl-3-piperidinyl)ethyl]-7,9-dihydro-8H-purin-8-one]",< 1580 nM
5,"CCCCOc1nc(N)c2[nH]c(=O)n(CCC3CCCN(CC(C)C)C3)c2n1 (stereo not shown) [Example 34, 6-Amino-2-(butyloxy)-9-{2-[1-(2-methylpropyl)-3-piperidinyl]ethyl}-7,9-dihydro-8H-purin-8-one]",< 1580 nM
6,"CCCCOc1nc(N)c2[nH]c(=O)n(CCC3CCCN(C(CC)CC)C3)c2n1 (stereo not shown) [Example 35, 6-Amino-2-(butyloxy)-9-{2-[1-(1-ethylpropyl)-3-piperidinyl]ethyl}-7,9-dihydro-8H-purin-8-one]",< 1580 nM
7,"CCCCOc1nc(N)c2[nH]c(=O)n(CCC3CCCN(C4CCCC4)C3)c2n1 (stereo not shown) [Example 36, 6-Amino-2-(butyloxy)-9-[2-(1-cyclopentyl-3-piperidinyl)ethyl]-7,9-dihydro-8H-purin-8-one]",< 1580 nM
8,"CCCCOc1nc(N)c2[nH]c(=O)n(CCC3CCCN(CC4CCCC4)C3)c2n1 (stereo not shown) [Example 37, 6-Amino-2-(butyloxy)-9-{2-[1-(cyclopentylmethyl)-3-piperidinyl]ethyl}-7,9-dihydro-8H-purin-8-one]",< 1580 nM
9,"CCCCOc1nc(N)c2[nH]c(=O)n(CCC3CCCN(CCC4CCCCC4)C3)c2n1 (stereo not shown) [Example 39, 6-Amino-2-(butyloxy)-9-{2-[1-(2-cyclohexylethyl)-3-piperidinyl]ethyl}-7,9-dihydro-8H-purin-8-one]",< 1580 nM
10,"CCC[C@H](C)Oc1nc(N)c2[nH]c(=O)n(CCC3CCCNC3)c2n1 (stereo partly drawn) [Example 40, 6-Amino-2-{[(1S)-1-methylbutyl]oxy}-9-[2-(3-piperidinyl)ethyl]-7,9-dihydro-8H-purin-8-one]",< 1580 nM
11,"CCCCOc1nc(N)c2[nH]c(=O)n(CCCC3CCCNC3)c2n1 (stereo not shown) [Example 43, 6-Amino-2-(butyloxy)-9-[3-(3-piperidinyl)propyl]-7,9-dihydro-8H-purin-8-one]",< 1580 nM
12,"CCCCOc1nc(N)c2[nH]c(=O)n(CCCC3CCCN(CC)C3)c2n1 (stereo not shown) [Example 44, 6-Amino-2-(butyloxy)-9-[3-(1-ethyl-3-piperidinyl)propyl]-7,9-dihydro-8H-purin-8-one]",< 1580 nM
13,"CCCCOc1nc(N)c2[nH]c(=O)n(CCCC3CCCN(CCC)C3)c2n1 (stereo not shown) [Example 45, 6-Amino-2-(butyloxy)-9-[3-(1-propyl-3-piperidinyl)propyl]-7,9-dihydro-8H-purin-8-one]",< 1580 nM
14,"CCCCOc1nc(N)c2[nH]c(=O)n(CCCC3CCCN(C(C)C)C3)c2n1 (stereo not shown) [Example 46, 6-Amino-2-(butyloxy)-9-{3-[1-(1-methylethyl)-3-piperidinyl]propyl}-7,9-dihydro-8H-purin-8-one]",< 1580 nM
15,"CCCCOc1nc(N)c2[nH]c(=O)n(CCCC3CCCN(CCCC)C3)c2n1 (stereo not shown) [Example 47, 6-Amino-2-(butyloxy)-9-[3-(1-butyl-3-piperidinyl)propyl]-7,9-dihydro-8H-purin-8-one]",< 1580 nM
16,"CCCCOc1nc(N)c2[nH]c(=O)n(CCCC3CCCN(CC(C)C)C3)c2n1 (stereo not shown) [Example 48, 6-Amino-2-(butyloxy)-9-{3-[1-(2-methylpropyl)-3-piperidinyl]propyl}-7,9-dihydro-8H-purin-8-one hydrochloride]",< 1580 nM
17,"CCCCOc1nc(N)c2[nH]c(=O)n(CCCC3CCCN(CCC(C)C)C3)c2n1 (stereo not shown) [Example 49, 6-Amino-2-(butyloxy)-9-{3-[1-(3-methylbutyl)-3-piperidinyl]propyl}-7,9-dihydro-8H-purin-8-one]",< 1580 nM
